Like-named read-outs stand apart in the source and are kept apart here. Numbered stars: 1 amine (or outer) side, 2 acyl side, 3 side chain; on linkers, the order of the positions; unused ones are H or OH. Square brackets hold non-standard residues; d marks the D form. Side chains are listed from the residue outwards. Peptide text beside a SMILES is read from it. * marks the point of attachment. γGlu = O=C(O)[C@H](CCC(=O)[*:2])N[*:1]; αMeF = C[C@](N)(Cc1ccccc1)C(=O)O; αMeK = C[C@](N)(CCCCN)C(=O)O; Lauroyl = CCCCCCCCCCCC(=O)*; αMeS = C[C@](N)(CO)C(=O)O; AEEA = NCCOCCOCC(=O)O; Aib = CC(C)(N)C(=O)O
Experiments:
Format in all cases: cell-based
Settings in all cases: tris-lipidated peptides
[1] = target: T1, human glucagon receptor (GCGR) (Homo sapiens, UniProt P47871); experiment: cAMP assay, human GCGR cells
T1 construct: expressed in transfected cells
T1 sequence (P47871 26-477): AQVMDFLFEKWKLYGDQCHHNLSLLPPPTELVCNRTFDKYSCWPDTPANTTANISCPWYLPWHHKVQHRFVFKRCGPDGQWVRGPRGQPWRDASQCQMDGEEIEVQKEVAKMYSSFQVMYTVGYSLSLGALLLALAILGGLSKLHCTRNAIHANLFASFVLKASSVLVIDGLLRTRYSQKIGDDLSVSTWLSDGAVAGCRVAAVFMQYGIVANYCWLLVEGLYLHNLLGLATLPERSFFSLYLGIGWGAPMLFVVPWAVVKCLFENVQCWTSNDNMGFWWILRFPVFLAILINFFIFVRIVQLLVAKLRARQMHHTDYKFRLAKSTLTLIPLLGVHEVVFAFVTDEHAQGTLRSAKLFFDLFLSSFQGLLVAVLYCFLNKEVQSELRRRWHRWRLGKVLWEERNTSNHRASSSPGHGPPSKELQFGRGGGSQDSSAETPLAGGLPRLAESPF
Procedure, shortened: (§1)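 Peptide-stimulated cAMP measured by two-step HTRF after a 30 min room-temperature incubation with receptor-expressing cells (hGLP-1R, hGIPR at 1×10^5 cells/ml; hGCGR at 2×10^5 cells/ml). Duplicate dilutions; EC50 from 4-parameter logistic fit of % Delta F.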

[2] = target: T2, human GLP-1 receptor (GLP-1R) (Homo sapiens, UniProt P43220); experiment: cAMP assay, human GLP-1R cells
T2 construct: expressed in transfected cells
T2 sequence (P43220 24-463): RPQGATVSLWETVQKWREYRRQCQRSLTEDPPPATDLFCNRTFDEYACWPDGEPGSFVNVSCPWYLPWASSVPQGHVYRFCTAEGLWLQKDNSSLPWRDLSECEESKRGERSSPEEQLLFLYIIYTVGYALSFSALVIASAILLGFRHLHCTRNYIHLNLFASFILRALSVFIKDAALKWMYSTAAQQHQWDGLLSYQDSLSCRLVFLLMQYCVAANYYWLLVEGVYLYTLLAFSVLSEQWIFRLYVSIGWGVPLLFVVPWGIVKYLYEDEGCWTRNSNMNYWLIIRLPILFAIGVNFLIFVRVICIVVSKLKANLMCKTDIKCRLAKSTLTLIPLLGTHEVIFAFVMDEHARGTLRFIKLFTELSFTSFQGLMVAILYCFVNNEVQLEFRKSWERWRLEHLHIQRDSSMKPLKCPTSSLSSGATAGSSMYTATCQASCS
Procedure, shortened: as §1

[3] = target: T3, human glucose-dependent insulinotropic peptide receptor (GIPR) (Homo sapiens, UniProt P48546); experiment: cAMP assay, human GIPR cells
T3 construct: expressed in transfected cells
T3 sequence (P48546 22-466): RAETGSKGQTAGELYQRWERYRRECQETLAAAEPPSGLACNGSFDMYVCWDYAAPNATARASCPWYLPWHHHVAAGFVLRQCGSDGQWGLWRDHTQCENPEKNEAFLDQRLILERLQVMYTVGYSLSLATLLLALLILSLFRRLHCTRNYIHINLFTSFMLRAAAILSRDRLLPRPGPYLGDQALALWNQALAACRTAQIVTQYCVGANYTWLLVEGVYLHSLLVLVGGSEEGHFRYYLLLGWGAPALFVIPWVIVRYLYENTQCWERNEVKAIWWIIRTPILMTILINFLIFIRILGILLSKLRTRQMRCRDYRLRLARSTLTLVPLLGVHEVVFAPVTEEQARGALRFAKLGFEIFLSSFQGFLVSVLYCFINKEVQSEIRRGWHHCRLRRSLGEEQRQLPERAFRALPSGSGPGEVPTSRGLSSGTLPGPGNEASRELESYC
Procedure, shortened: as §1

[4] = first replicate, read-out: Primary assay EC50 Gluc-R (n1)
[5] = mean of n1 and n2, read-out: Primary assay EC50 Mean pM GLP-1R
[6] = replicate n1, read-out: Primary assay EC50 GLP-1R n1
[7] = replicate n2, read-out: Primary assay EC50 GLP-1R n2
[8] = first replicate, read-out: Primary assay EC50 GIP-R (n1)
[9] = second replicate, read-out: Primary assay EC50 Gluc-R (n2)
[10] = second replicate, read-out: Primary assay EC50 GIP-R (n2)

| EC50 [1, 4] [nM] | EC50 [2, 5] [pM] | EC50 [2, 6] [pM] | EC50 [2, 7] [pM] | EC50 [3, 8] [nM] | EC50 [1, 9] [nM] | EC50 [3, 10] [nM] | SMILES |
| --- | --- | --- | --- | --- | --- | --- | --- |
| 19.7 | 93.4 | 28.8 | 158 | 19.7 |  |  | CCCCCCCCCCCC(=O)N[C@@H](CCC(=O)NCCOCCOCC(=O)NCCOCCOCC(=O)NCCCC[C@H](NC(=O)[C@H](CCC(=O)O)NC(=O)[C@H](CCCCNC(=O)COCCOCCNC(=O)COCCOCCNC(=O)CC[C@H](NC(=O)CCCCCCCCCCC)C(=O)O)NC(=O)[C@H](Cc1ccc(O)cc1)NC(=O)[C@H](CO)NC(=O)[C@](C)(CO)NC(=O)[C@@H](NC(=O)[C@H](CC(=O)O)NC(=O)[C@H](CO)NC(=O)[C@@H](NC(=O)[C@](C)(Cc1ccccc1)NC(=O)[C@H](CO)NC(=O)CNC(=O)[C@H](CCC(=O)O)NC(=O)C(C)(C)NC(=O)[C@@H](N)Cc1c[nH]cn1)[C@@H](C)O)C(C)C)C(=O)N[C@@H](CCC(=O)O)C(=O)N[C@@H](C)C(=O)N[C@@H](C)C(=O)N[C@@](C)(CCCCN)C(=O)N[C@@H](CCC(=O)O)C(=O)N[C@@H](Cc1ccccc1)C(=O)N[C@H](C(=O)N[C@@H](CCCCNC(=O)COCCOCCNC(=O)COCCOCCNC(=O)CC[C@H](NC(=O)CCCCCCCCCCC)C(=O)O)C(=O)N[C@@H](Cc1ccccc1)C(=O)N[C@H](C(=O)N[C@H](C(=O)N[C@@H](CCC(=O)O)C(=O)NCC(=O)NCC(N)=O)C(C)C)C(C)C)[C@@H](C)CC)C(=O)O [compound 451] (H-H[Aib]EGS[αMeF]TSDV[αMeS]SYK([AEEA-AEEA-γGlu-Lauroyl])EK([AEEA-AEEA-γGlu-Lauroyl])EAA[αMeK]EFIK([AEEA-AEEA-γGlu-Lauroyl])FVVEGG-NH2; N-terminus assumed) |
|  | 80.9 | 85.7 | 76.1 |  | 19.7 | 19.7 | CCCCCCCCCCCC(=O)N[C@@H](CCC(=O)NCCOCCOCC(=O)NCCOCCOCC(=O)NCCCC[C@H](NC(=O)CNC(=O)[C@H](CCC(=O)O)NC(=O)[C@H](CCCCNC(=O)COCCOCCNC(=O)COCCOCCNC(=O)CC[C@H](NC(=O)CCCCCCCCCCC)C(=O)O)NC(=O)[C@H](Cc1ccc(O)cc1)NC(=O)[C@H](CO)NC(=O)[C@](C)(CO)NC(=O)[C@@H](NC(=O)[C@H](CC(=O)O)NC(=O)[C@H](CO)NC(=O)[C@@H](NC(=O)[C@](C)(Cc1ccccc1)NC(=O)[C@H](CO)NC(=O)CNC(=O)[C@H](CCC(=O)O)NC(=O)C(C)(C)NC(=O)[C@@H](N)Cc1c[nH]cn1)[C@@H](C)O)C(C)C)C(=O)N[C@@H](C)C(=O)N[C@@H](C)C(=O)N[C@@](C)(CCCCN)C(=O)N[C@@H](CCC(=O)O)C(=O)N[C@@H](Cc1ccccc1)C(=O)N[C@H](C(=O)N[C@@H](CCCCNC(=O)COCCOCCNC(=O)COCCOCCNC(=O)CC[C@H](NC(=O)CCCCCCCCCCC)C(=O)O)C(=O)N[C@@H](Cc1ccccc1)C(=O)N[C@H](C(=O)N[C@H](C(=O)N[C@@H](CCC(=O)O)C(=O)NCC(=O)NCC(N)=O)C(C)C)C(C)C)[C@@H](C)CC)C(=O)O [compound 452] (H-H[Aib]EGS[αMeF]TSDV[αMeS]SYK([AEEA-AEEA-γGlu-Lauroyl])EGK([AEEA-AEEA-γGlu-Lauroyl])AA[αMeK]EFIK([AEEA-AEEA-γGlu-Lauroyl])FVVEGG-NH2; N-terminus assumed) |
|  | 114 | 62.9 | 165 | 19.5 | 19.5 |  | CCCCCCCCCCCC(=O)N[C@@H](CCC(=O)NCCOCCOCC(=O)NCCOCCOCC(=O)NCCCC[C@H](NC(=O)[C@H](CCC(=O)O)NC(=O)CNC(=O)[C@H](CCC(=O)O)NC(=O)[C@H](CCCCNC(=O)COCCOCCNC(=O)COCCOCCNC(=O)CC[C@H](NC(=O)CCCCCCCCCCC)C(=O)O)NC(=O)[C@H](Cc1ccc(O)cc1)NC(=O)[C@H](CO)NC(=O)[C@](C)(CO)NC(=O)[C@@H](NC(=O)[C@H](CC(=O)O)NC(=O)[C@H](CO)NC(=O)[C@@H](NC(=O)[C@](C)(Cc1ccccc1)NC(=O)[C@H](CO)NC(=O)CNC(=O)[C@H](CCC(=O)O)NC(=O)C(C)(C)NC(=O)[C@@H](N)Cc1c[nH]cn1)[C@@H](C)O)C(C)C)C(=O)N[C@@H](C)C(=O)N[C@@](C)(CCCCN)C(=O)N[C@@H](CCC(=O)O)C(=O)N[C@@H](Cc1ccccc1)C(=O)N[C@H](C(=O)N[C@@H](CCCCNC(=O)COCCOCCNC(=O)COCCOCCNC(=O)CC[C@H](NC(=O)CCCCCCCCCCC)C(=O)O)C(=O)N[C@@H](Cc1ccccc1)C(=O)N[C@H](C(=O)N[C@H](C(=O)N[C@@H](CCC(=O)O)C(=O)NCC(=O)NCC(N)=O)C(C)C)C(C)C)[C@@H](C)CC)C(=O)O [compound 453] (H-H[Aib]EGS[αMeF]TSDV[αMeS]SYK([AEEA-AEEA-γGlu-Lauroyl])EGEK([AEEA-AEEA-γGlu-Lauroyl])A[αMeK]EFIK([AEEA-AEEA-γGlu-Lauroyl])FVVEGG-NH2) |
| 20 | 117 | 101 | 133 | 20 |  |  | CCCCCCCCCCCC(=O)N[C@@H](CCC(=O)NCCOCCOCC(=O)NCCOCCOCC(=O)NCCCC[C@H](NC(=O)[C@H](C)NC(=O)[C@@H](NC(=O)[C@H](Cc1ccccc1)NC(=O)[C@H](CCC(=O)O)NC(=O)[C@](C)(CCCCN)NC(=O)[C@H](C)NC(=O)[C@H](CCCCNC(=O)COCCOCCNC(=O)COCCOCCNC(=O)CC[C@H](NC(=O)CCCCCCCCCCC)C(=O)O)NC(=O)[C@H](CCC(=O)O)NC(=O)CNC(=O)[C@H](CCC(=O)O)NC(=O)[C@H](CC(C)C)NC(=O)[C@H](CCCCNC(=O)COCCOCCNC(=O)COCCOCCNC(=O)CC[C@H](NC(=O)CCCCCCCCCCC)C(=O)O)NC(=O)[C@H](CO)NC(=O)[C@](C)(CO)NC(=O)[C@@H](NC(=O)[C@H](CC(=O)O)NC(=O)[C@H](CO)NC(=O)[C@@H](NC(=O)[C@](C)(Cc1ccccc1)NC(=O)[C@H](CO)NC(=O)CNC(=O)[C@H](CCC(=O)O)NC(=O)C(C)(C)NC(=O)[C@@H](N)Cc1c[nH]cn1)[C@@H](C)O)C(C)C)[C@@H](C)CC)C(=O)N[C@H](C(=O)N[C@H](C(=O)N[C@@H](CCC(=O)O)C(=O)NCC(=O)NCC(N)=O)C(C)C)C(C)C)C(=O)O [compound 465] (H-H[Aib]EGS[αMeF]TSDV[αMeS]SK([AEEA-AEEA-γGlu-Lauroyl])LEGEK([AEEA-AEEA-γGlu-Lauroyl])A[αMeK]EFIAK([AEEA-AEEA-γGlu-Lauroyl])VVEGG-NH2) |
|  | 73.5 | 62.4 | 84.5 | 20 | 20 |  | CCCCCCCCCCCC(=O)N[C@@H](CCC(=O)NCCOCCOCC(=O)NCCOCCOCC(=O)NCCCC[C@H](NC(=O)CNC(=O)[C@H](CCC(=O)O)NC(=O)[C@H](CCCCNC(=O)COCCOCCNC(=O)COCCOCCNC(=O)CC[C@H](NC(=O)CCCCCCCCCCC)C(=O)O)NC(=O)[C@H](Cc1ccc(O)cc1)NC(=O)[C@H](CO)NC(=O)[C@](C)(CO)NC(=O)[C@@H](NC(=O)[C@H](CC(=O)O)NC(=O)[C@H](CO)NC(=O)[C@@H](NC(=O)[C@](C)(Cc1ccccc1)NC(=O)[C@H](CO)NC(=O)CNC(=O)[C@H](CCC(=O)O)NC(=O)C(C)(C)NC(=O)[C@@H](N)Cc1c[nH]cn1)[C@@H](C)O)C(C)C)C(=O)N[C@@H](C)C(=O)N[C@@H](C)C(=O)N[C@@](C)(CCCCN)C(=O)N[C@@H](CCC(=O)O)C(=O)N[C@@H](Cc1ccccc1)C(=O)N[C@H](C(=O)N[C@@H](C)C(=O)N[C@@H](CCCCNC(=O)COCCOCCNC(=O)COCCOCCNC(=O)CC[C@H](NC(=O)CCCCCCCCCCC)C(=O)O)C(=O)N[C@H](C(=O)N[C@H](C(=O)N[C@@H](CCC(=O)O)C(=O)NCC(=O)NCC(N)=O)C(C)C)C(C)C)[C@@H](C)CC)C(=O)O [compound 468] (H-H[Aib]EGS[αMeF]TSDV[αMeS]SYK([AEEA-AEEA-γGlu-Lauroyl])EGK([AEEA-AEEA-γGlu-Lauroyl])AA[αMeK]EFIAK([AEEA-AEEA-γGlu-Lauroyl])VVEGG-NH2) |
|  | 31.3 | 26 | 36.5 |  | 20 | 20 | CCCCCCCCCCCC(=O)N[C@@H](CCC(=O)NCCOCCOCC(=O)NCCOCCOCC(=O)NCCCC[C@H](NC(=O)[C@H](C)NC(=O)[C@@H](NC(=O)[C@H](Cc1ccccc1)NC(=O)[C@H](CCCCNC(=O)COCCOCCNC(=O)COCCOCCNC(=O)CC[C@H](NC(=O)CCCCCCCCCCC)C(=O)O)NC(=O)[C@](C)(CCCCN)NC(=O)[C@H](C)NC(=O)[C@H](C)NC(=O)[C@H](CCC(=O)O)NC(=O)CNC(=O)[C@H](CCC(=O)O)NC(=O)[C@H](CCCCNC(=O)COCCOCCNC(=O)COCCOCCNC(=O)CC[C@H](NC(=O)CCCCCCCCCCC)C(=O)O)NC(=O)[C@H](Cc1ccc(O)cc1)NC(=O)[C@H](CO)NC(=O)[C@](C)(CO)NC(=O)[C@@H](NC(=O)[C@H](CC(=O)O)NC(=O)[C@H](CO)NC(=O)[C@@H](NC(=O)[C@](C)(Cc1ccccc1)NC(=O)[C@H](CO)NC(=O)CNC(=O)[C@H](CCC(=O)O)NC(=O)C(C)(C)NC(=O)[C@@H](N)Cc1c[nH]cn1)[C@@H](C)O)C(C)C)[C@@H](C)CC)C(=O)N[C@H](C(=O)N[C@H](C(=O)N[C@@H](CCC(=O)O)C(=O)NCC(=O)NCC(N)=O)C(C)C)C(C)C)C(=O)O [compound 470] (H-H[Aib]EGS[αMeF]TSDV[αMeS]SYK([AEEA-AEEA-γGlu-Lauroyl])EGEAA[αMeK]K([AEEA-AEEA-γGlu-Lauroyl])FIAK([AEEA-AEEA-γGlu-Lauroyl])VVEGG-NH2; N-terminus assumed) |

Reference: US10414811B2, “Protease-resistant lipidated GLP-1 analogs” (MEDIMMUNE LIMITED, priority 2015, dated 2019)
